Patent US20230203485A1, “METHODS FOR MODULATING MHC-I EXPRESSION AND IMMUNOTHERAPY USES THEREOF” (Dana-Farber Cancer Institute, Inc., priority 2020, published 2023)

Test system: class I antigen presentation gene expression in MCC cell lines
Experiment: RNA-seq / DESeq2 differential expression of MCC cell lines at baseline and after IFN-γ stimulation
Type: cell-based, human
Conditions: 11 MCC cell lines, baseline vs IFNγ; negative LFC = upregulation in IFNγ-treated
Protocol: FIG. 2A comprises RNA-seq heatmaps of class I antigen presentation gene expression in MCC lines and controls.
FIG. 2B is a volcano plot of differentially expressed genes (genes below FDR cutoff 0.01 are shown in yellow) between baseline and IFN-γ-treated MCC cell lines. Differential expression analysis was performed using DESeq2, and negative LFC indicates increased expression in +IFN-γ samples. IFN genes are highlighted in red.
RNA samples were first assessed for quality using the Agilent Bioanalyzer (DV200 metric). One hundred ng of RNA were used as the input for first strand cDNA synthesis using Superscript III reverse transcriptase and Illumina's TruSeq RNA Access Sample Prep Kit. Synthesis of the second strand of cDNA was followed by indexed adapter ligation with UMI (unique molecular index) adaptors. Subsequent PCR amplification enriched for adapted fragments. Amplified libraries were quantified, normalized, pooled, and hybridized with exome targeting oligos. Following hybridization, bead clean-up, elution and PCR was performed to prepare library pools for sequencing on Illumina flowcell lanes. Transcriptomes were sequenced to a coverage of at least 50 million reads in pairs.
Raw fastq files for fibroblast and keratinocyte control lines were downloaded from SRA using R Bioconductor package SRAdb (Mayakonda et al. (2018) supra; Zhu et al. (2013) BMC Bioinformatics 14 (1): 1-4) using accession codes SRP126422 (4 replicates from control samples ‘NN’) and SRP131347 (6 replicates with condition: control and genotype: control). These fastq files, along with those for the mkl1 and waga cell lines, were aligned using STAR version 2.7.3a (Dobin et al. (2013) Bioinformatics 29 (1): 15-21), using index genome reference file downloaded from ftp.ebi.ac.uk/pub/databases/gencode/Gencode_human/release_19/GRCh37.p13.genome.fa.gz, transcript annotation file downloaded from data.broadinstitute.org/snowman/hg19/star/gencode.v19.annotation.gtf, and with the following options: --twopassMode Basic, --outSAMstrandField intronMotif, --alignIntronMax 1000000, --alignMatesGapMax 1000000, --sjdbScore 2, --outSAMtype BAM Unsorted, --outSAMattributes NH HI NM MD AS XS, --outFilterType BySJout, --outSAMunmapped Within, --genomeLoad NoSharedMemory, --outFilterScoreMinOverLread 0, --outFilterMatchNminOverLread 0, --outFilterMismatchNmax 999, and outFilterMultimapNmax 20. Duplicates were marked with picard MarkDuplicates version 2.22.0-SNAPSHOT.
RNA-sequencing bam files for MCC tumor and cell line samples were downloaded from the Broad Genomics Firecloud/Terra platform using the Google Cloud Storage command line tool gsutil version 4.5 (github.com/GoogleCloudPlatform/gsutil/).
Gene counts were obtained from bam files using featureCounts version 2.0.0 (doi.org/10.1093/bioinformatics/btt656). Very lowly expressed genes with average count across samples less than 1 were excluded from analysis. Between-sample distance metrics were computed using the Euclidean distance on the vectors of variance-stabilized counts obtained from the vst function in the DESeq2 R Bioconductor package ([…]; Love et al. (2014) Genome Biology 15 (12): 550).
Differential expression analysis was carried out between (1) viral positive and viral negative samples (adjusting for cell line or tumor as a covariate), (2) cell line and tumor samples (adjusting for viral status as a covariate), and (3) IFNγ plus and minus samples (adjusting for viral status as a covariate) using the negative binomial GLM Wald test of DESeq2, where significance was assessed using the p-values adjusted for multiple comparisons under default settings. To account for potential global gene expression differences among sample groups, RUVg (Risso et al. (2014) […] 32 (9): 896-902) was used to estimate latent factors of unwanted variation from the list of housekeeping genes downloaded from www.tau.ac.il/˜elieis/HKG/HK_genes.txt. […]

## IFN-y: type II interferon, recombinant human, used to treat MCC cells
  log2FoldChange FBXO6 (ENSG00000116663.6): −2.854
  log2FoldChange FREM3 (ENSG00000183090.5): −4.873
  log2FoldChange FZD5 (ENSG00000163251.3): −1.098
  log2FoldChange GBP1 (ENSG00000117228.9): −10.1
  log2FoldChange GBP1P1 (ENSG00000225492.2): −7.927
  log2FoldChange GBP2 (ENSG00000162645.8): −6.235
  log2FoldChange GBP3 (ENSG00000117226.7): −9.215
  log2FoldChange GBP4 (ENSG00000162654.8): −10.33
  log2FoldChange GBP5 (ENSG00000154451.10): −5.854
  log2FoldChange HCP5 (ENSG00000206337.6): −5.131
  log2FoldChange HELB (ENSG00000127311.5): −1.463
  log2FoldChange HERC5 (ENSG00000138646.4): −2.156
  log2FoldChange HERC6 (ENSG00000138642.10): −9.027
  log2FoldChange HLA-A (ENSG00000206503.7): −3.702
  log2FoldChange HLA-B (ENSG00000234745.5): −4.921
  log2FoldChange HLA-C (ENSG00000204525.10): −4.155
  log2FoldChange HLA-DMA (ENSG00000204257.10): −3.237
  log2FoldChange HLA-DMB (ENSG00000242574.4): −5.727
  log2FoldChange HLA-DOA (ENSG00000204252.8): −7.789
  log2FoldChange HLA-DOB (ENSG00000241106.2): −3.598
  log2FoldChange HLA-DPA1 (ENSG00000231389.3): −9.303
  log2FoldChange HLA-DPB1 (ENSG00000223865.6): −7.613
  log2FoldChange HLA-DQB1 (ENSG00000179344.12): −7.335
  log2FoldChange HLA-DRA (ENSG00000204287.9): −10.07
  log2FoldChange HLA-DRB1 (ENSG00000196126.6): −7.278
  log2FoldChange HLA-DRB5 (ENSG00000198502.5): −5.98
  log2FoldChange HLA-E (ENSG00000204592.5): −2.608
  log2FoldChange HLA-F (ENSG00000204642.9): −7.289
  log2FoldChange HLA-G (ENSG00000204632.7): −3.367
  log2FoldChange HLA-H (ENSG00000206341.6): −3.883
  log2FoldChange HLA-J (ENSG00000204622.6): −4.551
  log2FoldChange HLA-L (ENSG00000243753.1): −2.336
  log2FoldChange IDO1 (ENSG00000131203.8): −5.825
  log2FoldChange IFI6 (ENSG00000126709.10): −2.328
  log2FoldChange IFI16 (ENSG00000163565.14): −5.946
  log2FoldChange IFI44 (ENSG00000137965.6): −8.954
  log2FoldChange IFI44L (ENSG00000137959.11): −7.733
  log2FoldChange IFIH1 (ENSG00000115267.5): −4.034
  log2FoldChange IFIT1 (ENSG00000185745.8): −3.465
  log2FoldChange IFIT2 (ENSG00000119922.7): −6.152
  log2FoldChange IFIT3 (ENSG00000119917.9): −9.398
  log2FoldChange IFITM1 (ENSG00000185885.11): −8.763
  log2FoldChange IFITM3 (ENSG00000142089.11): −7.436
  log2FoldChange IFNB1 (ENSG00000171855.5): −3.53
  log2FoldChange IL7 (ENSG00000104432.8): −3.753
  log2FoldChange IL15 (ENSG00000164136.12): −6.781
  log2FoldChange IL15RA (ENSG00000134470.15): −6.483
  log2FoldChange IL17RC (ENSG00000163702.14): −1.188
  log2FoldChange IL18BP (ENSG00000137496.13): −1.497
  log2FoldChange INPPI (ENSG00000151689.8): −1.931
  log2FoldChange IRF1 (ENSG00000125347.9): −5.385
  log2FoldChange IRF2 (ENSG00000168310.6): −1.588
  log2FoldChange ISG15 (ENSG00000187608.5): −3.824
  log2FoldChange ITK (ENSG00000113263.8): −4.656
  log2FoldChange KCNIP4 (ENSG00000185774.10): −2.647
  log2FoldChange KDR (ENSG00000128052.8): −7.174
  log2FoldChange KIAA0040 (ENSG00000235750.5): −3.216
  log2FoldChange LAP3 (ENSG00000002549.8): −1.871
  log2FoldChange LGALS12 (ENSG00000133317.10): −4.156
  log2FoldChange LIPT1 (ENSG00000144182.12): −0.5688
  log2FoldChange LOC154761 (ENSG00000253882.2): −3.161
  log2FoldChange LY75 (ENSG00000054219.9): −2.87
  log2FoldChange MAJIN (ENSG00000168070.7): −3.183
  log2FoldChange MOB3C (ENSG00000142961.10): −1.494
  log2FoldChange MOV10 (ENSG00000155363.14): −1.652
  log2FoldChange MTMR9LP (ENSG00000220785.3): −0.5387
  log2FoldChange NOD1 (ENSG00000106100.6): −1.317
  log2FoldChange NRIR (ENSG00000225964.1): −3.724
  log2FoldChange NUB1 (ENSG00000013374.11): −1.521
  log2FoldChange NUGGC (ENSG00000189233.7): −3.265
  log2FoldChange OPTN (ENSG00000123240.12): −1.482
  log2FoldChange PARP3 (ENSG00000041880.10): −1.726
  log2FoldChange PARP9 (ENSG00000138496.12): −5.112
  log2FoldChange PARP10 (ENSG00000178685.9): −3.43
  log2FoldChange PARP12 (ENSG00000059378.8): −2.758
  log2FoldChange PARP14 (ENSG00000173193.9): −9.512
  log2FoldChange PARP15 (ENSG00000173200.8): −3.778
  log2FoldChange PLA2G16 (ENSG00000176485.6): −2.531
